# Read-outs that look alike come from different tables or passages of the source.
# Assays:
# [1] = test system: ZFL cells; test: Mass balance model (MBM) prediction of Cfree and Ccell; design: species or system zebrafish
# Method: Ccell and Cfree were determined for the BDE-47 using Fisher et al.’s mass balance model (MBM). In brief, the test system parameters for the experiment (Table S3) and BDE-47 distribution parameters (Table S4) estimated by the UFZ-LSER Calculation Partition System tool were first entered into the MBM spreadsheet. Although this model includes preset parameters for various cell lines, the input fields for cell-line type and culture medium were left empty for ZFL, and generic parameters were applied instead. Then, data for fractions of cell (fcell), total medium (fmedium), cell membrane (fmem) and the water phase of the medium (fw,medium) compartment were output (Table S5) and applied to each experimentally determined BDE-47 Cmedium to estimate the Cfree, MBM and Ccell, MBM at each exposure time.
# [2] = Abiotic (volatilization) losses, contaminated medium without cells; format: physicochemical
# Method: A total of 2 × 10^6 ZFL cells were plated in P100 glass dishes and incubated for 24 h under standard culture conditions. Subsequently, the culture medium was replaced with a contaminated medium, which, according to the cell viability assay, maintained viability above 70% by the end of the exposure period (Section 2.3). Cells were exposed to 1.8 and 2.6 mg⋅L^−1 for 24, 48 and 72 h, in two independent experiments. Parallel experiments were conducted under identical conditions to assess losses: one set included cells without contaminated medium, and another consisted of contaminated medium without cells (“no cells”). The obtained pellets were collected from all exposure time, dried under a gentle stream of nitrogen and weighed on a precision analytical balance (±0.00001 g). Finally, the dried cell pellets and their corresponding medium collected at all exposure times, including the starting medium (“t = 0 h”), were stored at −20 °C until analysis.
# (§1) One of the objectives was to assess whether cell lines can be used within the BCF-IVIVE model, relying on intrinsic clearance in vitro, to estimate the biotransformation rate which is subsequently extrapolated to adult fish. This approach is based on the model developed by Nichols et al. and is endorsed by the OECD guideline 319A [10] and OECD 2018a. Briefly, the log10-transformed substrate experimental concentrations in the medium (Cmed) were plotted against time, and the first-order elimination rate constant (ke, h^−1) was determined as −2.3 × slope of the log-linear decline. Black et al. indicate that a correction to the elimination rate constant (ke) should be applied when the following conditions are met: (i) abiotic losses from volatilization, calculated by comparing the recovery of negative control samples (“no cells”) at each exposure time to the initial time, fall outside the acceptable range of 80–120%, (ii) the loss process follows first order kinetics, and (iii) the ratio of ke and the volatilization rate constant (kvolat) is below 10 (ke/kvolat < 10). Then, the constant corrected for losses due to volatilization (ke,loss) was determined as −2.3 × the difference of the slopes of the sample and the loss control of the log-linear descent. The in vitro constant was then extrapolated to obtain an in vivo metabolization constant (kMET). This was done using experimental cell concentration (CHEP, 10^6 cells/mL) and default parameters derived from rainbow trout. In this study, in addition to estimating BCF with the official model parameters derived from rainbow trout (BCFIVIVE,RT), BCF was also estimated with the literature-derived parameters for zebrafish (BCFIVIVE,ZF), due to the use of ZFL cells. Finally, the BCF was estimated by the ratio of concentration in the organism to concentration in the medium, following the standardized model. The concentration in the organism was predicted using the one-compartment model given by Arnot and Gobas, which includes the rate constants describing chemical uptake (k1), loss through the gills (k2), fecal egestion (kE), growth rate (kG) and metabolization rate (kMET). Except for kMET, which is estimated experimentally in vitro, the rest are only dependent on the log KOW of the compound. On the other hand, due to the use of cell lines, the free concentration estimated was introduced instead of the total concentration in the medium (CW,TOT).
# [3] = test system: ZFL cells; test: Substrate depletion in ZFL cells, inputs of the IVIVE-BCF model; format: in vitro ADME, zebrafish
# Excerpt: One of the objectives was to assess whether cell lines can be used within the BCF-IVIVE model, relying on intrinsic clearance in vitro, to estimate the biotransformation rate which is subsequently extrapolated to adult fish. This approach is based on the model developed by Nichols et al. and is endorsed by the OECD guideline 319A [10] and OECD 2018a. Briefly, the log10-transformed substrate experimental concentrations in the medium (Cmed) were plotted against time, and the first-order elimination rate constant (ke, h^−1) was determined as −2.3 × slope of the log-linear decline. Black et al. indicate that a correction to the elimination rate constant (ke) should be applied when the following conditions are met: (i) abiotic losses from volatilization, calculated by comparing the recovery of negative control samples (“no cells”) at each exposure time to the initial time, fall outside the acceptable range of 80–120%, (ii) the loss process follows first order kinetics, and (iii) the ratio of ke and the volatilization rate constant (kvolat) is below 10 (ke/kvolat < 10). Then, the constant corrected for losses due to volatilization (ke,loss) was determined as −2.3 × the difference of the slopes of the sample and the loss control of the log-linear descent. The in vitro constant was then extrapolated to obtain an in vivo metabolization constant (kMET). This was done using experimental cell concentration (CHEP, 10^6 cells/mL) and default parameters derived from rainbow trout. In this study, in addition to estimating BCF with the official model parameters derived from rainbow trout (BCFIVIVE,RT), BCF was also estimated with the literature-derived parameters for zebrafish (BCFIVIVE,ZF), due to the use of ZFL cells. Finally, the BCF was estimated by the ratio of concentration in the organism to concentration in the medium, following the standardized model. […]
# [4] = test system: rainbow trout; test: IVIVE-BCF model with rainbow trout default parameters; format: in vitro ADME; conditions: for BCFIVIVE, RT: ZFL cells, rainbow trout parameters
# Excerpt: as §1
# [5] = test system: zebrafish eleutheroembryos; design: method as in PMID 36705440; conditions: cited from earlier work
# [6] = cited from earlier work
smiles,measurement,setting,value
"Brc1ccc(Oc2ccc(Br)cc2Br)c(Br)c1 [BDE-47, 2,2′,4,4′-tetrabromodiphenyl ether]",Ratio MBM/experimental of internal concentration,"[1]; 24h, 1.8 mg·L-1, ZFL cells",51%
same,Ratio MBM/experimental of internal concentration,"[1]; 24h, 2.6 mg·L-1, ZFL cells",73%
same,Ratio MBM/experimental of internal concentration,"[1]; 48h, 1.8 mg·L-1, ZFL cells",44%
same,Ratio MBM/experimental of internal concentration,"[1]; 48h, 2.6 mg·L-1, ZFL cells",78%
same,Ratio MBM/experimental of internal concentration,"[1]; 72h, 1.8 mg·L-1, ZFL cells",36%
same,Ratio MBM/experimental of internal concentration,"[1]; 72h, 2.6 mg·L-1, ZFL cells",66%
same,Recovery of losses from volatilization (% Rec. Vol.),"[2]; 24h, 1.8 mg·L-1, no cells vs time 0h",76%
same,Recovery of losses from volatilization (% Rec. Vol.),"[2]; 24h, 2.6 mg·L-1, no cells vs time 0h",73%
same,Recovery of losses from volatilization (% Rec. Vol.),"[2]; 48h, 1.8 mg·L-1, no cells vs time 0h",69%
same,Recovery of losses from volatilization (% Rec. Vol.),"[2]; 48h, 2.6 mg·L-1, no cells vs time 0h",63%
same,Recovery of losses from volatilization (% Rec. Vol.),"[2]; 72h, 1.8 mg·L-1, no cells vs time 0h",68%
same,Recovery of losses from volatilization (% Rec. Vol.),"[2]; 72h, 2.6 mg·L-1, no cells vs time 0h",52%
same,"decrease in Cmedium,no cells with respect to nominal concentration","[2]; Cnominal 1.8 mg·L^−1, cell-free sample",29%
same,"decrease in Cmedium,no cells with respect to nominal concentration","[2]; Cnominal 2.6 mg·L^−1, cell-free sample",37%
same,"ke,loss","[3]; Experiment 1.8 mg·L-1, corrected for volatilization losses",0.012 h⁻¹
same,"ke,loss","[3]; Experiment 2.6 mg·L-1, corrected for volatilization losses",0.002 h⁻¹
same,"Cw, TOT (Cfree,exp)","[3]; Experiment 2.6 mg·L-1, input parameter",0.0016 mg/L
same,CLH,"[4]; 1.8 mg·L-1, RT",8.217 mL/h/kg
same,"CLIN VITRO, INT","[4]; 1.8 mg·L-1, RT",0.0220 mL/h/106 cells
same,kMET,"[4]; 1.8 mg·L-1, RT",0.0092 day⁻¹
same,CLH,"[4]; 2.6 mg·L-1, RT",1.38 mL/h/kg
same,"CLIN VITRO, INT","[4]; 2.6 mg·L-1, RT",0.0037 mL/h/106 cells
same,kMET,"[4]; 2.6 mg·L-1, RT",0.0015 day⁻¹
same,"BCFIVIVE, RT",[4]; Cnominal 1.8 mg·L^−1,7221 L/kg
same,"BCFIVIVE, RT",[4]; Cnominal 2.6 mg·L^−1,"14,184 L·kg^−1"
same,BCF48 h,"[5]; 1 µg·L^−1, zebrafish larvae","16,392 L·kg^−1"
same,BCFk,"[5]; 1 µg·L^−1, zebrafish larvae","36,363 L·kg^−1"
same,BCF48 h,"[5]; 10 µg·L^−1, zebrafish larvae",4106 L/kg
same,BCFk,"[5]; 10 µg·L^−1, zebrafish larvae",7295 L/kg
same,Henry's law constant (KH),[6]; at 30 °C,1.79 ± 0.21 Pa·m^3·mol^−1
same,log Kow,[6],6.81
same,log DPDMS/medium,[6]; partition constant PDMS fiber/medium,5.84

# — paper PMC12194305, “Assessing Bioconcentration and Biotransformation of BDE-47 In Vitro: The Relevance of Bioavailable and Intracellular Concentrations” (Journal of Xenobiotics, 2025)
